Data as given in US10316079B2, “Monoclonal antibody against muramyl peptides” (priority 2012, dated 2019).

What was measured:
[1] = system: binding of 2E7 to N-acetylmuramyl-L-alanyl-D-isoglutamine conjugated to OVA; test: Competitive ELISA for antigen specificity of 2E7; set-up: species or system mouse; details: concentration dependent, compared with N-acetylmuramyl-L-alanyl-D-isoglutamine
Source text: To enhance the antigenicity of the MDPs, these molecules were conjugated to the human serum albumin (HSA) using a linker molecule. The carboxylic acid moiety of MDPs was first coupled to N-Boc-ethylenediamine, and then the Boc protection group was removed and the resulting amine was linked to HSA with glutaraldehyde. […] The MDP-HSA conjugates were then used to immunize BALB/c mice. Serum antigen-specific titers of the immunized mice were examined by enzyme-linked immunosorbent assay (ELISA) against MDPs conjugated to ovalbumin (OVA) using the same linkage strategy as described above. Generation of hybridoma cell lines, screening of antibody-producing clones, preparation and purification of mAbs, and mAb isotyping were carried out by following standard protocols. Antigen specificity of a mAb was determined using competitive ELISA to test the ability of different MDPs and constituent moieties to inhibit the binding of a mAb to the MDP originally used as antigen for immunization.

Escherichia coli = test: MPs released into culture supernatant with amoxicillin, competitive ELISA using 2E7; type: cell-based; details: 40 μg per ml amoxicillin added at OD600=1.5; vs untreated culture
Description: (§1) Power Fit equation y=a*(x−b)^c using CurveExpert Basic. The standard curve was used to determine the peptidoglycan to concentration in a sample. […] Both bacteria were grown to OD600=1.5. Each culture was divided into two, and one treated with 40 μg/ml amoxicillin (Atex) and the other untreated. Aliquots were collected at the indicated times and the amount of MPs in the supernatant was determined by competitive ELISA. […] After removing unbound antibodies by PBS washes, the cells were incubated with a FITC-labeled anti-mouse IgG Ab before fluorescence microscopic examination.
(§2) For this test, Gram-positive bacterium Staphylococcus aureus, which has a thick peptidoglycan layer, and […] Escherichia coli, which has a thin peptidoglycan layer, were selected and grown in the presence or absence of amoxicillin. The culture was grown to a density of OD600=1.5 and then divided into two equal aliquots. To one aliquot, amoxicillin was added to a final concentration of 40 μg per ml, and to the other aliquot, no drug was added. Both cultures were allowed to continue to grow. Aliquots of cultures were collected at timed intervals and cells were removed by centrifugation. The amount of MPs in the supernatant was determined by competitive ELISA using 2E7.

Staphylococcus aureus = test: as above; type: cell-based; details: 40 μg per ml amoxicillin added at OD600=1.5; vs untreated culture
Description: as §1, §2

[2] = system: bacteria of the mouse microbiota; test: Blood MP level in mice fed amoxicillin, competitive ELISA using 2E7; type: in vivo; details: amoxicillin 100 mg/kg fed at 12-h intervals, 4 h after each feeding
Description: Amoxicillin was administered orally to 50 mice at 12-h intervals and three mice were sacrificed every 4 h to collect blood for peptidoglycan quantification by ELISA. […] Serial blood samples were taken. Time for blood draw and IV injection are indicated.
The MP level in serum was determined by competitive ELISA using an example of the antibody of the present disclosure, i.e. 2E7.

Molecule | inhibition of 2E7 binding to N-acetylmuramyl-L-alanyl-D-isoglutamine conjugated to OVA [1] | molecules in culture medium that inhibit 2E7 binding to N-acetylmuramyl-L-alanyl-D-isoglutamine (MPs) (Escherichia coli) | molecules in culture medium that inhibit 2E7 binding to N-acetylmuramyl-L-alanyl-D-isoglutamine (MPs) (Staphylococcus aureus) | increase in the blood MP level [2]
CC(=O)N[C@H]1C(O)O[C@H](CO)[C@@H](O)[C@@H]1O[C@H](C)C(=O)N[C@H](C)C(=O)N[C@H](CCC(=O)O)C(=O)O (stereo partly drawn) [N-acetylmuramyl-L-alanyl-D-glutamate] | almost as effectively as N-acetylmuramyl-L-alanyl-D-isoglutamine |  |  | 
CC1(C)S[C@@H]2[C@H](NC(=O)[C@H](N)c3ccc(O)cc3)C(=O)N2[C@H]1C(=O)O [amoxicillin] |  | sharp increase | sharp increase | 20-60%
muramyl-L-alanyl-D-isoglutamine | almost as effectively as N-acetylmuramyl-L-alanyl-D-isoglutamine |  |  | 
CC(NC(=O)C(C)OC1C(N)C(O)OC(CO)C1O)C(=O)NC(CCC(=O)O)C(=O)O [muramyl-L-alanyl-D-glutamate] | almost as effectively as N-acetylmuramyl-L-alanyl-D-isoglutamine |  |  | 
